Reference: patent US8846694B2, “Pyrrolidone derivatives for use as MetAP-2 inhibitors” (Merck Patent GmbH, priority 2008, dated 2014)
Where a name gives a salt, the structure may show the parent alone.

biological target: MetAP-2 (Homo sapiens, UniProt P50579); test: MetAP-2 activity measurement (coupled enzymatic reactions, substrate Met-Arg-Ser, photometric at 450 nm); assay type: biochemical; settings: read-out: IC50 enzyme (Inhibition of MetAP-2)
Protocol: MetAP-2 Activity Measurement
The MetAP-2 activity is determined by coupling enzymatic reactions. The tripeptide Met-Arg-Ser (MAS) is employed as substrate. The methionine liberated is firstly converted into Metox and H2O2 by L-aminooxidase (AAO). In the second step, the peroxidase (POD) with the aid of the H2O2 catalyses the oxidation of the leukodye dianisidine to dianisidineox, the increase of which is detected photometrically at 450 nm.
MetAP-2 activity can be recorded continuously as kinetics. The reaction scheme illustrates that one mol of dianisidineox is formed per mol of methionene. The MetAP-2 enzyme activity can therefore be calculated directly as Δ absorption per time unit. […] of the MetAP-2 activity (mol of Met/time unit) is possible with the aid of the dianisidineox extinction coefficient.
The change in extinction per time unit is depicted graphically and a slope calculation is carried out in the visually linear region of the reaction.

Chain of MetAP-2 (P50579 whole entry, species assumed): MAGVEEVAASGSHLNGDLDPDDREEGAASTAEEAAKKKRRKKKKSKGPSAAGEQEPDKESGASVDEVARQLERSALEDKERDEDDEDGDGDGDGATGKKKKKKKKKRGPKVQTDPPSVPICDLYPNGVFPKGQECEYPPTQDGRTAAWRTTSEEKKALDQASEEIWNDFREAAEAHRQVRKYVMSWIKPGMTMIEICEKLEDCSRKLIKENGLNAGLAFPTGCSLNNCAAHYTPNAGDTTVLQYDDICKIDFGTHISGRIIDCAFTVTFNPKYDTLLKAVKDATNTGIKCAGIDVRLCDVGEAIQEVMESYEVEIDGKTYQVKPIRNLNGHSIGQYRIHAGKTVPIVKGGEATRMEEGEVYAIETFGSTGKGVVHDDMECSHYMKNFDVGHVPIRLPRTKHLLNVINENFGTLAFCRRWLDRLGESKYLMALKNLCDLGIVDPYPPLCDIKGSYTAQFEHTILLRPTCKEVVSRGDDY

Structure (SMILES) | IC50 [µM]
c1ccc(-c2ccccc2OC[C@H]2CCCN2c2ncnc3[nH]cnc23)cc1 [A62, 6-[(R)-2-(Biphenyl-2-yloxymethyl)pyrrolidin-1-yl]-9H-purine] | 1 to 10
c1ccc(-c2cccc(OC[C@H]3CCCN3c3ncnc4[nH]cnc34)c2)cc1 [A63, 6-[(R)-2-(Biphenyl-3-yloxymethyl)pyrrolidin-1-yl]-9H-purine] | 1 to 10
c1ccc(-c2ccc(OC[C@H]3CCCN3c3ncnc4[nH]cnc34)cc2)cc1 [A64, 6-[(R)-2-(Biphenyl-4-yloxymethyl)pyrrolidin-1-yl]-9H-purine] | > 10
COC(=O)c1cccc(-c2ncc(OC[C@H]3CCCN3c3ncnc4[nH]cnc34)cn2)c1 [A65, Methyl 3-{5-[(R)-1-(9H-purin-6-yl)pyrrolidin-2-yl-methoxy]pyrimidin-2-yl}benzoate] | 0.01 to 1
O=C(NCCN1CCOCC1)c1cccc(-c2ncc(OC[C@H]3CCCN3c3ncnc4[nH]cnc34)cn2)c1 [A66, N-(2-Morpholin-4-ylethyl)-3-{5-[(R)-1-(9H-purin-6-yl)pyrrolidin-2-ylmethoxy]pyrimidin-2-yl}-benzamide] | 0.01 to 1
CNC(=O)/C=C1/CCc2c(OC[C@H]3CCCN3c3ncnc4[nH]cnc34)cccc2C1=O [A67, N-Methyl-2-[1-oxo-5-[(R)-1-(9H-purin-6-yl)-pyrrolidin-2-ylmethoxy]-3,4-dihydro-1H-naphthalen-(2Z)-ylidene]acetamide] | 0.01 to 1
CC(O)CNC(=O)c1cc(OC[C@H]2CCCN2c2ncnc3[nH]cnc23)c2ccccc2n1 (stereo partly drawn) [A68, N-(2-Hydroxypropyl)-4-[(R)-1-(9H-purin-6-yl)-pyrrolidin-2-ylmethoxy]quinoline-2-carboxamide hydrochloride] | 0.01 to 1
O=C(NC1CCCC1)c1cc(OC[C@H]2CCCN2c2ncnc3[nH]cnc23)c2ccccc2n1 [A69, N-Cyclopentyl-4-[(R)-1-(9H-purin-6-yl)-pyrrolidin-2-ylmethoxy]quinoline-2-carboxamide] | 1 to 10
CCCCNC(=O)c1cc(OC[C@H]2CCCN2c2ncnc3[nH]cnc23)c2ccccc2n1 [A70, N-Butyl-4-[(R)-1-(9H-purin-6-yl)pyrrolidin-2-yl-methoxy]quinoline-2-carboxamide] | 0.01 to 1
CCCNC(=O)c1cc(OC[C@H]2CCCN2c2ncnc3[nH]cnc23)c2ccccc2n1 [A71, N-Propyl-4-[(R)-1-(9H-purin-6-yl)pyrrolidin-2-yl-methoxy]quinoline-2-carboxamide] | 0.01 to 1
CC1(C)Cc2cccc(OC[C@H]3CCCN3c3ncnc4[nH]cnc34)c2O1 [A72, 6-[(R)-2-(2,2-Dimethyl-2,3-dihydrobenzofuran-7-yloxymethyl)pyrro!idin-1-yl]-9H-purine] | 1 to 10
c1cc(OC[C@H]2CCCN2c2ncnc3[nH]cnc23)c2ncoc2c1 [A73, 6-[(R)-2-(Benzoxazol-4-yloxymethyl)pyrrolidin-1-yl]-9H-purine] | 1 to 10
CCOC(=O)/C=C/c1ccccc1OC[C@H]1CCCN1c1ncnc2[nH]cnc12 [A74, Ethyl (E)-3-{2-[(R)-1-(9H-purin-6-yl)pyrrolidin-2-ylmethoxy]phenyl}acrylate] | 0.01 to 1
Cc1cc2c(OC[C@H]3CCCN3c3ncnc4[nH]cnc34)cccc2n1C(=O)C(F)(F)F [A75, 2,2,2-Trifluoro-1-{2-methyl-4-[(R)-1-(9H-purin-6-yl)pyrrolidin-2-ylmethoxy]indol-1-yl}ethanone] | 1 to 10
O=C(O)/C=C/c1ccccc1OC[C@H]1CCCN1c1ncnc2[nH]cnc12 [A76, (E)-3-{2-[(R)-1-(9H-Purin-6-yl)pyrrolidin-2-yl-methoxy]phenyl}acrylic acid] | > 10
Fc1ccc(-c2ncc(OC[C@H]3CCCN3c3ncnc4[nH]cnc34)cn2)cc1 [A77, 6-{(R)-2-[2-(4-Fluorophenyl)pyrimidin-5-yl-oxymethyl]pyrrolidin-1-yl}-9H-purine] | 1 to 10
CNC(=O)/C=C/c1ccccc1OC[C@H]1CCCN1c1ncnc2[nH]cnc12 [A78, (E)-N-Methyl-3-{2-[(R)-1-(9H-purin-6-yl)-pyrrolidin-2-ylmethoxy]phenyl}acrylamide] | 1 to 10
O=C(/C=C/c1ccccc1OC[C@H]1CCCN1c1ncnc2[nH]cnc12)NCCCO [A79, (E)-N-(3-Hydroxypropyl)-3-{2-[(R)-1-(9H-purin-6-yl)pyrrolidin-2-ylmethoxy]phenyl}acrylamide] | 0.01 to 1
O=C(NC1CCC1)c1cc(OC[C@H]2CCCN2c2ncnc3[nH]cnc23)c2ccccc2n1 [A80, N-Cyclobutyl-4-[(R)-1-(9H-purin-6-yl)pyrrolidin-2-ylmethoxy]quinoline-2-carboxamide] | 0.01 to 1

More lines, now with the values ahead:

IC50 [µM] | Structure (SMILES)
0.01 to 1 | CCCCCNC(=O)c1cc(OC[C@H]2CCCN2c2ncnc3[nH]cnc23)c2ccccc2n1 [A81, N-Pentyl-4-[(R)-1-(9H-purin-6-yl)pyrrolidin-2-yl-methoxy]quinoline-2-carboxamide]
0.01 to 1 | Cn1ncc(Cl)c1/C=C1/CCc2c(OC[C@H]3CCCN3c3ncnc4[nH]cnc34)cccc2C1=O [A82, 2-[1-(4-Chloro-2-methyl-2H-pyrazol-3-yl)meth-(Z)-ylidene]-5-[(R)-1-(9H-purin-6-yl)pyrrolidin-2-ylmethoxy]-3,4-dihydro-2H-naphthalen-1-one]
0.01 to 1 | O=C1/C(=C\c2cc[nH]n2)CCc2c(OC[C@H]3CCCN3c3ncnc4[nH]cnc34)cccc21 [A83, 5-[(R)-1-(9H-Purin-6-yl)pyrrolidin-2-ylmethoxy]-2-[1-(1H-pyrazol-3-yl)meth-(Z)-yildene]-3,4-dihydro-2H-naphthaien-1-one]
0.01 to 1 | O=C(NCCO)c1cc(OC[C@H]2CCCN2c2ncnc3[nH]cnc23)c2ccccc2n1 [A84, N-(2-Hydroxyethyl)-4-[(R)-1-(9H-purin-6-yl)-pyrrolidin-2-ylmethoxy]quinoline-2-carboxamide]
0.01 to 1 | O=C(NCCCO)c1cc(OC[C@H]2CCCN2c2ncnc3[nH]cnc23)c2ccccc2n1 [A85, N-(3-Hydroxypropyl)-4-[(R)-1-(9H-purin-6-yl)-pyrrolidin-2-ylmethoxy]quinoline-2-carboxamide]
0.01 to 1 | c1cc(OC[C@H]2CCCN2c2ncnc3[nH]cnc23)c2cccnc2c1 [A86, 5-[(R)-1-(9H-Purin-6-yl)pyrrolidin-2-yl-methoxy]quinoline]
0.01 to 1 | c1cc(OC[C@H]2CCCN2c2ncnc3[nH]cnc23)c2cnccc2c1 [A87, 8-[(R)-1-(9H-Purin-6-yl)pyrrolidin-2-yl-methoxy]isoquinoline]
0.01 to 1 | O=C(NCC1CC(O)C1)c1cc(OC[C@H]2CCCN2c2ncnc3[nH]cnc23)c2ccccc2n1 (stereo partly drawn) [A88, N-(3-Hydroxycyclobutylmethyl)-4-[(R)-1-(9H-purin-6-yl)pyrrolidin-2-ylmethoxy]quinoline-2-carboxamide]
0.01 to 1 | Cc1cc2c(OC[C@H]3CCCN3c3ncnc4[nH]cnc34)cccc2cn1 [A89, 3-Methyl-5-[(R)-1-(9H-purin-6-yl)pyrrolidin-2-yl-methoxy]isoquinoline]
0.01 to 1 | CC(=O)N(CCN1CCOCC1)Cc1ccc(OC[C@H]2CCCN2c2ncnc3[nH]cnc23)c2ccccc12 [A92, N-(2-Morpholin-4-ylethyl)-N-{4-[(R)-1-(9H-purin-6-yl)pyrrolidin-2-ylmethoxy]naphthalen-1-yl-methyl}acetamide]
0.01 to 1 | c1ccc2c(OC[C@H]3CCCN3c3ncnc4[nH]cnc34)ccnc2c1 [A93, 4-[(R)-1-(9H-Purin-6-yl)pyrrolidin-2-yl-methoxy]quinoline]
0.01 to 1 | O=CN(CCN1CCOCC1)Cc1ccc(OC[C@H]2CCCN2c2ncnc3[nH]cnc23)c2ccccc12 [A94, N-(2-Morpholin-4-ylethyl)-N-{4-[(R)-1-(9H-purin-6-yl)pyrrolidin-2-ylmethoxy]naphthalen-1-yl-methyl}formamide]
0.01 to 1 | c1ccc2c(OC[C@H]3CCCN3c3ncnc4[nH]cnc34)ccc(CNCCCN3CCOCC3)c2c1 [A95, (3-Morpholin-4-ylpropyl)-{4-[(R)-1-(9H-purin-6-yl)pyrrolidin-2-ylmethoxy]naphthalen-1-yl-methyl}amine]
0.01 to 1 | O=C1c2cccc(OC[C@H]3CCCN3c3ncnc4[nH]cnc34)c2CC[C@@H]1Cc1c[nH]cn1 [A96, (R)-2-(1H-Imidazol-4-ylmethyl)-5-[(R)-1-(9H-purin-6-yl)pyrrolidin-ylmethoxy]-3,4-dihydro-2H-naphthalen-1-one]
0.01 to 1 | O=C1c2cccc(OC[C@H]3CCCN3c3ncnc4[nH]cnc34)c2CC[C@H]1Cc1c[nH]cn1 [A97, (S)-2-(1H-Imidazol-4-y!methyl)-5-[(R)-1-(9H-purin-6-yl)pyrrolidin-2-ylmethoxy]-3,4-dihydro-2H-naphthalen-1-one]
0.01 to 1 | CC(=O)N(CCN1CCCCC1)Cc1ccc(OC[C@H]2CCCN2c2ncnc3[nH]cnc23)c2ccccc12 [A98, N-(2-Piperidin-1-ylethyl)-N-{4-[(R)-1-(9H-purin-6-yl)pyrrolidin-2-ylmethoxy]naphthalen-1-yl-methyl]acetamide]
0.01 to 1 | CC(=O)N(Cc1ccn(C)n1)Cc1ccc(OC[C@H]2CCCN2c2ncnc3[nH]cnc23)c2ccccc12 [A99, N-(1-Methyl-1H-pyrazol-3-ylmethyl)-N-{4-[(R)-1-(9H-purin-6-yl)pyrrolidin-2-ylmethoxy]-naphthalen-1-ylmethyl}acetamide]
0.01 to 1 | CC(=O)N(Cc1ccc(OC[C@H]2CCCN2c2ncnc3[nH]cnc23)c2ccccc12)CC(O)CO (stereo partly drawn) [A100, N-(2,3-Dihydroxypropyl)-N-{4-[(R)-1-(9H-purin-6-yl)pyrrolidin-2-ylmethoxy]naphthalen-1-yl-methyl}acetamide]
0.01 to 1 | O=CN(CCN1CCCCC1)Cc1ccc(OC[C@H]2CCCN2c2ncnc3[nH]cnc23)c2ccccc12 [A101, N-(2-Piperidin-1-ylethyl)-N-{4-[(R)-1-(9H-purin-6-yl)pyrrolidin-2-ylmethoxy]naphthalen-1-yl-methyl}formamide]
